The target in one assay is T1, Cysteine protease ATG4B (Homo sapiens, UniProt Q9Y4P1).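 Note: Fluorescence-based dose-response confirmation assay measuring inhibition of ATG4B activity.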
T1 sequence (Q9Y4P1 whole entry): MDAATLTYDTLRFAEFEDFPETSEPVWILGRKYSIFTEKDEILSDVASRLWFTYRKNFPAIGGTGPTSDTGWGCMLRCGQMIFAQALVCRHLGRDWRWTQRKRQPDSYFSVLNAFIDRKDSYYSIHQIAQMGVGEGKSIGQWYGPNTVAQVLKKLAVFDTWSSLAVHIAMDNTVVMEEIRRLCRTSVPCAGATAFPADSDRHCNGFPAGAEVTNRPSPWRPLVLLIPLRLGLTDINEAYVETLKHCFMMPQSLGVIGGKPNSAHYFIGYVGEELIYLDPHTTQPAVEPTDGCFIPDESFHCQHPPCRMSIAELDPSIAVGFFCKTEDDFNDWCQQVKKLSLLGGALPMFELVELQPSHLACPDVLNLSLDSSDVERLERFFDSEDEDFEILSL
The format is functional.

The target in a further assay is Phospholipase A2 (Homo sapiens, UniProt P04054). The format is functional.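 Note: confirmatory dose-response counterscreen on phospholipase A2, testing hits that came from an ultra-high-throughput screen for ATG4B inhibitors.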
Assay [1] in a line: Luminescence Cell-Based Dose Retest to Confirm Inhibitors of Cancer Stem Cells. [Related pubchem assays (depositor defined):AID2717, AID2721]. The class given is functional. The conditions noted are these: Homo sapiens.
The test system of another assay is INS1. Nature of the assay: INS-1E survival protection against cytokine death – cell-based, luminescence, retest, dose response (AID 449756).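 Note: cell death triggered by IL-1 beta plus TNF-alpha plus IFN-gamma mixture; protective hits raise ATP signal compared with cytokine alone wells.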 The following applies: Rattus norvegicus. The class given is functional.
Assay [2] can be described thus: blockers of HIV-1 ZM109 envelope-driven cell-cell fusion – HeLa effector, CEM target cells, luciferase, cherry-pick, dose response (AID 652058).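 Note: luciferase signal from HIV-1 Env mediated cell-cell fusion of effector and target cells.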 The format is functional, cell-based.
A short description of assay [3]: blockers of HIV-1 envelope-mediated cell-cell fusion – cherry-pick, dose response (AID 652057). The class given is functional, cell-based.
The target of a further assay is Beta-galactosidase (Escherichia coli, UniProt Q8VNN2). Nature of the assay: Dose response counterscreen for EBI2 assay utilizing the enzyme, b-galactosidase. The class given is functional. (Counterscreens check selectivity or assay interference.)
Assay [4] in a line: Trypanosoma cruzi growth suppression in host cells – NIH3T3 host cells, beta-gal luminescence, confirmation (AID 2044).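 Note: intracellular parasites grown in NIH/3T3 mouse fibroblasts as host cells; luminescent beta-galactosidase reporter signal from transgenic T. cruzi replicating inside host cells; inhibitors lower the luminescence signal.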 The format is functional, cell-based.
A short description of assay [5]: viability loss in HeLa cells – cytotoxicity control for MgcRacGAP inhibitor project, dose response (AID 624300). The class given is functional.
Assay [6] can be described thus: NIH3T3 cell viability loss – ATP luminescence, mouse fibroblasts, counter-screen, dose response (AID 2010).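 Note: cells exposed to compound for about 90 hours before reading.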 The class given is functional, cell-based.
Assay [7] has as its target T2, Rac GTPase-activating protein 1 (Homo sapiens, UniProt Q9H0H5).
T2 sequence (Q9H0H5 whole entry): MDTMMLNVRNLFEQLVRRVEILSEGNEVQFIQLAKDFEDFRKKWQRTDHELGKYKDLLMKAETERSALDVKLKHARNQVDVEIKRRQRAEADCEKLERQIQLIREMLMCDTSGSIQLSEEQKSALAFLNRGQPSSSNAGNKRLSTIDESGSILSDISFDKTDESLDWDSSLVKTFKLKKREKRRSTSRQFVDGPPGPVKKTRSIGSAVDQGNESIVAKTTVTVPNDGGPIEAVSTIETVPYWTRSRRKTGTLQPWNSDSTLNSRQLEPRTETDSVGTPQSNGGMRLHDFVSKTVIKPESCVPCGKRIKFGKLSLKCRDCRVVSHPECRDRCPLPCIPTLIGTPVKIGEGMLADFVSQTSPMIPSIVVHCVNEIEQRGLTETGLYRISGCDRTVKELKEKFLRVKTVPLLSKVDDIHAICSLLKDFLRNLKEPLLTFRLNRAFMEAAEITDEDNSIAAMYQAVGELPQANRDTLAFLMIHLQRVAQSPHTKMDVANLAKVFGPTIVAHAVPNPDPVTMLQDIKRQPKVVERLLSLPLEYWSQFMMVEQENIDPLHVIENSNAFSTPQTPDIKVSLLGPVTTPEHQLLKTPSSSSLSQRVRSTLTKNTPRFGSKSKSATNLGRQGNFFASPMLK
Briefly: blockers of MgcRacGAP-driven Rac1 GTP hydrolysis – biochemical, ADP Hunter fluorescence, primary and confirmatory, confirmation (AID 624330). The class given is functional.

Assay [8] can be described thus: HIV-1 AD8 envelope cell-cell fusion blockers – cherry-pick, dose response (AID 652062).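 Note: luciferase signal from cell-cell fusion driven by HIV-1 clade B AD8 Env; potency is for inhibitors of fusion seen as a drop in luminescence.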 The format is functional, cell-based.
A short description of assay [9]: microbe, parasite or virus in culture. The format is functional. The conditions noted are these: Mycobacterium tuberculosis.
For another assay, the target named is Paired box protein Pax-8 (Homo sapiens, UniProt Q06710). Briefly: PAX8 transcriptional activity inhibition in RMG-I – RMG-I cells, luciferase, cherry-pick, dose response (AID 687027).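 Note: luciferase reporter driven by Pax8 target thyroperoxidase promoter measured by SteadyGlo luminescence.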 The class given is functional, cell-based.
A further assay addresses Nonstructural protein 1 (Influenza A virus, UniProt Q194T2). The format is functional, Influenza A virus (A/California/07/2009(H1N1)).
In assay [10] the target is T3, DNA repair protein RAD52 homolog (Homo sapiens, UniProt P43351).
T3 sequence (P43351 whole entry): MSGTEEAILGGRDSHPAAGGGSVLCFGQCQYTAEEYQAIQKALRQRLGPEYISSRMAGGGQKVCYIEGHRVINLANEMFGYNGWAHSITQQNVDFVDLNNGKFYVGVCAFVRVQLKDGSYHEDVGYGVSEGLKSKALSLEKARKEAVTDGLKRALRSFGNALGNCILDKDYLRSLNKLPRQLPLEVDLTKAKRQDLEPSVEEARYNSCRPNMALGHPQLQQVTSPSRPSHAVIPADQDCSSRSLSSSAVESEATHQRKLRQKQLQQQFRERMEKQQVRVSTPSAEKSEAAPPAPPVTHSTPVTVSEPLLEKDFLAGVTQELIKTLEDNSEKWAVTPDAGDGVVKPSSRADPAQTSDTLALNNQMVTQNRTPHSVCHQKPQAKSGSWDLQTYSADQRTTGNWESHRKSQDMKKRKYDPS
The format is functional, biochemical.

The text below walks through data of ChEMBL document CHEMBL1201862, “PubChem BioAssay data set” (2004).

As usually defined, the IC50 is the midpoint of a concentration-inhibition curve. Broadly, the AC50 is the midpoint of the concentration-response curve, whichever way the signal moves. The EC50 is the concentration at which the effect is half-maximal.

Active and inactive are the calls of the source. A value given as a limit tells only on which side of the number the result lay.

Beta-galactosidase, sequence (Q8VNN2 whole entry): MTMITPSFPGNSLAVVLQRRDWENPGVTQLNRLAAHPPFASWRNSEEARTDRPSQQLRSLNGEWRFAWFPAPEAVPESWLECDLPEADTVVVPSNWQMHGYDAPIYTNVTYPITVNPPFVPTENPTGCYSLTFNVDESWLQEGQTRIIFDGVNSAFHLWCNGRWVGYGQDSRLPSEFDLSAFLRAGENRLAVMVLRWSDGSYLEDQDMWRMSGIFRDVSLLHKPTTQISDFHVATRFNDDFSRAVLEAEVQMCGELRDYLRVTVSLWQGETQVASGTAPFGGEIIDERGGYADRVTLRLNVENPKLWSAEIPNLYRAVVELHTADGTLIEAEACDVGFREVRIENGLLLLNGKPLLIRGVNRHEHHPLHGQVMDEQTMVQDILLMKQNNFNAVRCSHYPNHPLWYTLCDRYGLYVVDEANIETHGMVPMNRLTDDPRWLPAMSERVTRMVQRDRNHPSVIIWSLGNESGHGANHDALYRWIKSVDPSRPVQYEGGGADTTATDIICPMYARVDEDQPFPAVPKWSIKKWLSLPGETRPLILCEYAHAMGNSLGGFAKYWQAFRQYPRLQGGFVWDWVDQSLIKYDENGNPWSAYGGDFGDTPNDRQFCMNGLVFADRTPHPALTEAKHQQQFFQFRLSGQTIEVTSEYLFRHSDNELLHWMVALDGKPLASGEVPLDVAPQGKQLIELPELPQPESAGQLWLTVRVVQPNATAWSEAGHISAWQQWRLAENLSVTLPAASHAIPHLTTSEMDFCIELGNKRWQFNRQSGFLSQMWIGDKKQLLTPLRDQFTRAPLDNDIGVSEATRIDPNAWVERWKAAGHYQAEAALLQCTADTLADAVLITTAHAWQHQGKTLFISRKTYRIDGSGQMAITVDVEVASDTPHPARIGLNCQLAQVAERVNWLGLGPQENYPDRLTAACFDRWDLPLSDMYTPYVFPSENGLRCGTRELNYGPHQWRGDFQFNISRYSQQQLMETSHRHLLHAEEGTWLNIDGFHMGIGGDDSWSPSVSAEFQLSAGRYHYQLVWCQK
Phospholipase A2, sequence (P04054 whole entry): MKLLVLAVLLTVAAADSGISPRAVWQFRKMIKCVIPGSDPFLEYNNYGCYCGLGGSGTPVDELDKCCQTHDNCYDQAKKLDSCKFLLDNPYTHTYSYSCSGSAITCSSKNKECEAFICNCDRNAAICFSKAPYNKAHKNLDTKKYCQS
Nonstructural protein 1, sequence (Q194T2 whole entry): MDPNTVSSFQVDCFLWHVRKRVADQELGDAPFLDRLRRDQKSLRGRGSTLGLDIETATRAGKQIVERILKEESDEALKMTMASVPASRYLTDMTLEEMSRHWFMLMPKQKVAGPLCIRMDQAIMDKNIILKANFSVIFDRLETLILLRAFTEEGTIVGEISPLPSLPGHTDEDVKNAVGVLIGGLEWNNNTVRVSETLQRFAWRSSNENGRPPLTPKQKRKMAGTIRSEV
Paired box protein Pax-8, sequence (Q06710 whole entry): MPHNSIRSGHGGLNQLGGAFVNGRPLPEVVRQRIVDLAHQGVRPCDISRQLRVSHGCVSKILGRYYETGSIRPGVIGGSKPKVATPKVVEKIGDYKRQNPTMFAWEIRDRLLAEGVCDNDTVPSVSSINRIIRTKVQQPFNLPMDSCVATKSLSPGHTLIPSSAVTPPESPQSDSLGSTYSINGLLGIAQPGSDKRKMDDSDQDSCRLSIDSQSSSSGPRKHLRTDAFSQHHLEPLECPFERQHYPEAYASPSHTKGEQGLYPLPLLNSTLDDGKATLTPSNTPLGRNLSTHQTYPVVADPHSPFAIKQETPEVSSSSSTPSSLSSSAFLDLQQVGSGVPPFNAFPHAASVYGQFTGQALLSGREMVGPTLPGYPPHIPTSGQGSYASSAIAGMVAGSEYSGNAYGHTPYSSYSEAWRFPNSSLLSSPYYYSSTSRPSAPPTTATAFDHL

Regarding `Cc1ccc(C(=O)O)cc1/N=C/c1cc(Br)cc(Br)c1O`, the IC50 on Cysteine protease ATG4B was 9.89 µM (active); on Phospholipase A2, 18 µM (active).

As to `CCC1=NN(C(=O)c2cccc(Br)c2)C(O)(c2ccc(Br)cc2)C1` (centres undefined), the IC50 on Cysteine protease ATG4B is 12.1 µM (active); at Phospholipase A2 it was 8.71 µM (active). The AC50 was 0.634 µM (active) in assay [1] and 4.84 µM (active) in the assay on INS1.

Regarding `C[C@H]1CN([C@@H](C)CO)S(=O)(=O)c2ccc(-c3cccc(C#N)c3)cc2O[C@H]1CN(C)Cc1cccc(F)c1`, the figures for the AC50 in [2] and in assay [3] were 43.1 µM (active) and 45.7 µM (active), respectively.

Regarding `CC(=O)N1CCOc2ccc(S(=O)(=O)N3CCC(C(=O)NCc4ccc(Cl)cc4)CC3)cc21`, at Beta-galactosidase, the IC50 is > 80 µM (inactive).

Take `CN(C)Cc1ccc(F)cc1Sc1cc(Cl)ccc1Cl`: the IC50 on Cysteine protease ATG4B is 16.9 µM (active); on Phospholipase A2 it was 16.4 µM (active).

For `N#C/C(=C\c1ccccc1)C(=O)Nc1cc(S(=O)(=O)N2CCOCC2)ccc1N1CCCC1`, the IC50 on Beta-galactosidase is > 80 µM (inactive).

As to `CCOc1cc(CNc2ccc(N3CCCCC3)cc2)cc(Br)c1OCC(=O)NC(C)(C)C`, the 50% effective concentration (EC50) was 1.46 µM (active) in assay [4] and > 60 µM (inconclusive) in [6]. Also, in [5], the CC50 was 100 µM (active). Besides, the IC50 in assay [7] was 20.8 µM (active).

`COc1ccccc1CNC(=O)C[C@H]1C[C@@H]2c3cc(NS(=O)(=O)c4ccc(F)cc4)ccc3O[C@@H]2[C@H](CO)O1`: the half-maximal activity concentration (AC50) in assay [8], in [2] and in assay [3] was < 0.26 µM (active) each time.

With `NC(=O)CSc1nc2cc([N+](=O)[O-])ccc2[nH]1`, the figures for the IC50 at Cysteine protease ATG4B and at Phospholipase A2 were 12.4 µM (active) and 9.62 µM (active), respectively.

For `O=C(/C=C/c1ccc(Cl)cc1)N1CCN(c2ccc(Cl)cc2[N+](=O)[O-])CC1`, the CC50 in assay [9] is > 40 µM (active). Further, the IC50 on Beta-galactosidase was > 80 µM (inactive).

`Cc1cc(C)c(S(=O)(=O)N2CCN(C(=O)c3ccc(-n4nc(C)c(Cl)c4C)cc3)CC2)c(C)c1`: the IC50 on Beta-galactosidase is > 80 µM (inactive).

Regarding `CCOC(=O)/C=C/C(=O)Nc1cc(S(=O)(=O)Nc2ccc(OC)cc2)ccc1N1CCOCC1`, the concentration at half-maximal activity (AC50) at Paired box protein Pax-8 was 5.42 µM (active). In addition, the IC50 at Beta-galactosidase is > 80 µM (inactive).

As for `C[C@@H]1CN([C@@H](C)CO)S(=O)(=O)c2ccc(C3=CCCCC3)cc2O[C@@H]1CN(C)S(=O)(=O)c1ccc(F)cc1`, the AC50 was 3.53 µM (active) in assay [8], 1.35 µM (active) in assay [2] and 3.34 µM (active) in assay [3].

`Cc1ccc(Oc2ncc(-c3ccc(Cl)cc3)cn2)cc1`: at Beta-galactosidase, the IC50 was > 80 µM (inactive).

Take `Cc1ccc(NCCN(C)C)c2c(=O)c3cc(O)ccc3sc12`: the CC50 in assay [5] was 27.7 µM (active). For the same compound, the IC50 on Nonstructural protein 1 is 21.7 µM (active); in assay [7], 24 µM (active). The AC50 in assay [10] was 0.32 µM (active).
